We go through 41 compounds from US11358969B2, “Indole AHR inhibitors and uses thereof” (Ikena Oncology, Inc., priority 2017, dated 2022).

pIC50: −log10 of the molar value.

The assay concerns the target T1, AHR (UniProt P35869).
T1 construct: IC50
T1 sequence (P35869 1-848): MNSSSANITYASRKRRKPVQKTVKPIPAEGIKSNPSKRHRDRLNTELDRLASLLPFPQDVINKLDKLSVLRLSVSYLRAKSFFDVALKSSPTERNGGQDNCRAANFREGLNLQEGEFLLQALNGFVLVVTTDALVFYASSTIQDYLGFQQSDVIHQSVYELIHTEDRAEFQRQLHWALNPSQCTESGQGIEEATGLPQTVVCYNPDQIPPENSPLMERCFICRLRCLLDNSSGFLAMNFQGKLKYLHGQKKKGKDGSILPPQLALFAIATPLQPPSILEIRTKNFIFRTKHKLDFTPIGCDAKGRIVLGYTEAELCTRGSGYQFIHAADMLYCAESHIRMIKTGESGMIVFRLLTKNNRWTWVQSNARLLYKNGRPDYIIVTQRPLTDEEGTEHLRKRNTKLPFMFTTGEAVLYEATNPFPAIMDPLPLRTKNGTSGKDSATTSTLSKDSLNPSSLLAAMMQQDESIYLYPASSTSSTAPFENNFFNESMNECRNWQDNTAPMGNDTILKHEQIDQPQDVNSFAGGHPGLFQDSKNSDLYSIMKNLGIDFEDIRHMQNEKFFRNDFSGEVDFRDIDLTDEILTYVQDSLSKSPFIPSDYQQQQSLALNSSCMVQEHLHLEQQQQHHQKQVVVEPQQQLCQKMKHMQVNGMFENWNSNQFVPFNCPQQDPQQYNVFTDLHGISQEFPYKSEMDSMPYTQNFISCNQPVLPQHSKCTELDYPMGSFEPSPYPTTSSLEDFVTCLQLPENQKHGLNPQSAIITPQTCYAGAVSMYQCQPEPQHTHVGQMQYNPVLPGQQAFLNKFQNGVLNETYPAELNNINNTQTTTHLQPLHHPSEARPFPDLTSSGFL
In words: DRE-Luciferase Reporter Assay (Alternate Method) (Example 1B). Type of assay: cell-based, murine or human. The following applies: cell line and AHR activating ligand not specified.
On to `CC(C)c1cnn2c(N[C@@H]3CCc4[nH]c5ccccc5c4C3)cc(-c3cccnc3)nc12` [I-245, (3R)—N-[3-Isopropyl-5-(3-pyridyl)pyrazolo[1,5-a]pyrimidin-7-yl]-2,3,4,9-tetrahydro-1H-carbazol-3-amine], for which the negative logarithm of the IC50 (pIC50) is less than 5.82.
Consider `CC(C)c1cnn2c(NCCc3c[nH]c4ccccc34)cc(-c3ccc4c(c3)OCO4)nc12` [I-246, 5-(1,3-Benzodioxol-5-yl)-N-[2-(1H-indol-3-yl)ethyl]-3-isopropyl-pyrazolo[1,5-a]pyrimidin-7-amine], for which the pIC50 was 5.82 to 6.00.
The compound `CC(C)c1cnn2c(N[C@H]3CCc4[nH]c(-c5ccccc5)cc4C3)nc(-c3cncc(F)c3)nc12` [I-249a, 2-(5-Fluoro-3-pyridyl)-8-isopropyl-N-[(5S)-2-phenyl-4,5,6,7-tetrahydro-1H-indol-5-yl]pyrazolo[1,5-a][1,3,5]triazin-4-amine] showed a negative-log IC50 (pIC50) greater than 6.30.
Consider `CC(C)c1cnn2c(N[C@@H]3CCc4[nH]c(-c5ccccc5)cc4C3)nc(-c3cncc(F)c3)nc12` [I-249b, 2-(5-Fluoro-3-pyridyl)-8-isopropyl-N-[(5R)-2-phenyl-4,5,6,7-tetrahydro-1H-indol-5-yl]pyrazolo[1,5-a][1,3,5]triazin-4-amine], for which the negative logarithm of the IC50 (pIC50) was greater than 6.30.
Turning to `CC(C)c1cnn2c(NC3CCc4[nH]c5ccccc5c4C3)nc(N(C)C)nc12` (centres unmarked) [I-250], the pIC50 is less than 5.82.
Regarding `CN1CCN(C(=O)c2cnn3c(NC4CCc5[nH]c6ccccc6c5C4)nc(-c4cncc(F)c4)nc23)CC1` (centres unmarked) [I-251], the pIC50 is less than 5.82.
`Fc1cncc(-c2nc(N[C@H]3CCc4[nH]ccc4C3)c3ncccc3n2)c1` [I-252a, 2-(5-Fluoro-3-pyridyl)-N-[(5S)-4,5,6,7-tetrahydro-1H-indol-5-yl]pyrido[3,2-d]pyrimidin-4-amine] had a negative logarithm of the IC50 (pIC50) greater than 6.30.
The compound `Fc1cncc(-c2nc(N[C@@H]3CCc4[nH]ccc4C3)c3ncccc3n2)c1` [I-252b, 2-(5-Fluoro-3-pyridyl)-N-[(5R)-4,5,6,7-tetrahydro-1H-indol-5-yl]pyrido[3,2-d]pyrimidin-4-amine] gave a pIC50 greater than 6.30.
On to `Fc1cncc(-c2nc(N[C@@H]3CCc4[nH]c5ccccc5c4C3)n3ncc(-c4ccn[nH]4)c3n2)c1` [I-253, (3R)—N-[2-(5-Fluoro-3-pyridyl)-8-(1H-pyrazol-5-yl)pyrazolo[1,5-a][1,3,5]triazin-4-yl]-2,3,4,9-tetrahydro-1H-carbazol-3-amine], for which the pIC50 was greater than 6.30.
`CC(C)c1cnn2c(N[C@@H]3CCc4[nH]c5ccccc5c4C3)nc(N3CCOCC3)nc12` [I-254, (3R)—N-(8-Isopropyl-2-morpholino-pyrazolo[1,5-a][1,3,5]triazin-4-yl)-2,3,4,9-tetrahydro-1H-carbazol-3-amine]: the pIC50 is less than 5.82.
Next, `CC(C)c1cnn2c(N[C@@H]3CCc4[nH]c5ccccc5c4C3)nc(-c3cccnc3)nc12` [I-255, (3R)—N-[8-Isopropyl-2-(3-pyridyl)pyrazolo[1,5-a][1,3,5]triazin-4-yl]-2,3,4,9-tetrahydro-1H-carbazol-3-amine]: greater than 6.30; `Fc1cncc(-c2nc(N[C@@H]3CCc4[nH]c5ccccc5c4C3)c3nccn3n2)c1` [I-256, (3R)—N-[2-(5-fluoro-3-pyridyl)imidazo[2,1-f][1,2,4]triazin-4-yl]-2,3,4,9-tetrahydro-1H-carbazol-3-amine]: greater than 6.30.
In the case of `Fc1cncc(-c2nc(NCCc3c[nH]c4ccccc34)c3ncccc3n2)c1` [I-257, 2-(5-Fluoro-3-pyridyl)-N-[2-(1H-indol-3-yl)ethyl]pyrido[3,2-d]pyrimidin-4-amine], the negative logarithm of the IC50 (pIC50) was greater than 6.30.
As for `CC(C)c1cnn2c(N[C@@H]3CCc4[nH]c5ccccc5c4C3)nc(C3CCOCC3)nc12` [I-258, (3R)—N-(8-Isopropyl-2-tetrahydropyran-4-yl-pyrazolo[1,5-a][1,3,5]triazin-4-yl)-2,3,4,9-tetrahydro-1H-carbazol-3-amine], the pIC50 is less than 5.82.
In turn, `Cc1cnn2c(N[C@@H]3CCc4[nH]ccc4C3)nc(-c3cncc(F)c3)nc12` [I-259b, 2-(5-Fluoro-3-pyridyl)-8-methyl-N-[(5R)-4,5,6,7-tetrahydro-1H-indol-5-yl]pyrazolo[1,5-a][1,3,5]triazin-4-amine] showed a negative logarithm of the IC50 (pIC50) greater than 6.30.
Compound `CC(C)c1cnn2c(NC3CCc4[nH]c5ccccc5c4C3)nc(N3CCN(C)CC3)nc12` (centres unmarked) [I-260] gave a negative-log IC50 (pIC50) of less than 5.82.
Next, `CC(C)c1cnn2c(NC3CCc4[nH]c5ccccc5c4C3)nc(-c3cccc(OC(F)(F)F)c3)nc12` (centres unmarked) [I-261]: less than 5.82; `O=C(c1cnn2c(N[C@@H]3CCc4[nH]c5ccccc5c4C3)nc(-c3cncc(F)c3)nc12)N1CCOCC1` [I-262, [2-(5-Fluoro-3-pyridyl)-4-[[(3R)-2,3,4,9-tetrahydro-1H-carbazol-3-yl]amino]pyrazolo[1,5-a][1,3,5]triazin-8-yl]-morpholino-methanone]: greater than 6.30; `CC(C)c1cnn2c(N[C@H]3Cc4[nH]c5ccccc5c4C3)nc(-c3cncc(F)c3)nc12` [I-263b, (2R)—N-[2-(5-fluoro-3-pyridyl)-8-isopropyl-pyrazolo[1,5-a][1,3,5]triazin-4-yl]-1,2,3,4-tetrahydrocyclopenta[b]indol-2-amine]: 5.82 to 6.00.
Compound `CC(C)c1cnn2c(N[C@@H]3CCc4[nH]c5ccccc5c4C3)nc(N3CCCCC3)nc12` [I-264, (3R)—N-[8-Isopropyl-2-(1-piperidyl)pyrazolo[1,5-a][1,3,5]triazin-4-yl]-2,3,4,9-tetrahydro-1H-carbazol-3-amine] gave a negative logarithm of the IC50 (pIC50) of less than 5.82.
As for `NC(=O)c1cnn2c(N[C@@H]3CCc4[nH]c5ccccc5c4C3)nc(-c3cncc(F)c3)nc12` [I-265, 2-(5-Fluoro-3-pyridyl)-4-[[(3R)-2,3,4,9-tetrahydro-1H-carbazol-3-yl]amino]pyrazolo[1,5-a][1,3,5]triazine-8-carboxamide], the figure is greater than 6.30; as for `CC(C)c1cnn2c(NCCc3c[nH]c(N)n3)nc(-c3cncc(F)c3)nc12` [I-266], less than 5.82; as for `Fc1cncc(-c2nc(N[C@@H]3CCc4[nH]c5ccccc5c4C3)n3ncc(C(F)(F)F)c3n2)c1` [I-267, (3R)—N-[2-(5-Fluoro-3-pyridyl)-8-(trifluoromethyl)pyrazolo[1,5-a][1,3,5]triazin-4-yl]-2,3,4,9-tetrahydro-1H-carbazol-3-amine], greater than 6.30.
Compound `CC(C)c1cnn2c(NC3CCc4[nH]c5ccccc5c4C3)nc(C3CCCCC3)nc12` (centres unmarked) [I-268] had a negative-log IC50 (pIC50) of less than 5.82.
In turn, `CC(C)c1cnn2c(NC3CCc4[nH]c5ccccc5c4C3)nc(-c3ccc(OC(F)(F)F)cc3)nc12` (centres unmarked) [I-269] gave a pIC50 of less than 5.82.
`CC(C)c1cnn2c(N[C@@H]3CCc4[nH]c5ccccc5c4C3)nc(-c3cncnc3)nc12` [I-270, (3R)—N-(8-Isopropyl-2-pyrimidin-5-yl-pyrazolo[1,5-a][1,3,5]triazin-4-yl)-2,3,4,9-tetrahydro-1H-carbazol-3-amine] had a negative logarithm of the IC50 (pIC50) greater than 6.30.
`CC(C)c1cnn2c(NC3CCc4[nH]c5ccccc5c4C3)nc(-c3ccc4c(c3)OC(F)(F)O4)nc12` (centres unmarked) [I-271] showed a negative-log IC50 (pIC50) of less than 5.82.
For the compound `CC(C)c1cnn2c(NC3CCc4[nH]c5ccccc5c4C3)nc(-c3ccc(=O)n(C)c3)nc12` (centres unmarked) [I-272], the negative-log IC50 (pIC50) is less than 5.82.
`Fc1cncc(-c2nc(NC3CCc4[nH]c5ccccc5c4C3)n3ncc(-c4ncc[nH]4)c3n2)c1` (centres unmarked) [I-273]: the negative logarithm of the IC50 (pIC50) was 5.82 to 6.00.
Turning to `Fc1cncc(-c2nc(NC3CCc4[nH]c5ccccc5c4C3)n3ncc(-c4cnc[nH]4)c3n2)c1` (centres unmarked) [I-274], the negative logarithm of the IC50 (pIC50) is greater than 6.30.
As for `O=Cc1cnn2c(NC3CCc4[nH]c5ccccc5c4C3)nc(-c3cncc(F)c3)nc12` (centres unmarked) [I-275], the figure is greater than 6.30.
`Fc1cncc(-c2nc(NC3CCc4[nH]c5ccccc5c4C3)n3ncc(CNC4CC4)c3n2)c1` (centres unmarked) [I-276] gave a pIC50 greater than 6.30.
Take `CNCc1cnn2c(NC3CCc4[nH]c5ccccc5c4C3)nc(-c3cncc(F)c3)nc12` (centres unmarked) [I-277]: the negative logarithm of the IC50 (pIC50) is greater than 6.30.
As to `OCc1cnn2c(NC3CCc4[nH]c5ccccc5c4C3)nc(-c3cncc(F)c3)nc12` (centres unmarked) [I-278], the pIC50 is greater than 6.30.
Compound `CC(C)c1cnn2c(NC3CCc4[nH]c5ccccc5c4C3)nc(-c3cncc(C(F)(F)F)c3)nc12` (centres unmarked) [I-279] gave a negative-log IC50 (pIC50) of less than 5.82.
As to `CC(C)c1cnn2c(NC3CCc4[nH]c5ccccc5c4C3)nc(-c3ccc(C(F)(F)F)nc3)nc12` (centres unmarked) [I-280], the pIC50 was less than 5.82.
Turning to `CC(C)c1cnn2c(NC3CCc4[nH]c5ccccc5c4C3)nc(-n3ccnc3)nc12` (centres unmarked) [I-281], the pIC50 is greater than 6.30.
In turn, `C#Cc1cnn2c(NC3CCc4[nH]c5ccccc5c4C3)nc(-c3cncc(F)c3)nc12` (centres unmarked) [I-282] showed a negative logarithm of the IC50 (pIC50) greater than 6.30.
Take `CNC(=O)c1cnn2c(NC3CCc4[nH]c5ccccc5c4C3)nc(-c3cncc(F)c3)nc12` (centres unmarked) [I-283]: the negative logarithm of the IC50 (pIC50) is less than 5.82.
As for `CC(C)c1cnn2c(NC3CCc4[nH]c5ccccc5c4C3)nc(-c3ccnnc3)nc12` (centres unmarked) [I-284], the figure is 6.00 to 6.30; as for `O=C(NC1CC1)c1cnn2c(NC3CCc4[nH]c5ccccc5c4C3)nc(-c3cncc(F)c3)nc12` (centres unmarked) [I-285], less than 5.82.
